These results are taken from PMC10895697 (JAC-Antimicrobial Resistance, 2024).

In general, MBC refers to the smallest concentration meeting the test's criterion for killing.

Structures are written as SMILES. Converted amounts (≈) assume the structure as drawn.

The test system of one assay is S. aureus 1333 (MSSA). Description: MIC/MBC by broth microdilution reference method. The format is cell-based, Staphylococcus aureus. Particulars: Staphylococcus aureus, MSSA. In general terms: Broth dilution looks for growth in wells or tubes with falling amounts of substance.
The next assay concerns S. aureus 1334 (MSSA). Description: MIC/MBC by broth microdilution reference method. The format is cell-based, Staphylococcus aureus. Particulars: Staphylococcus aureus, MSSA.
Another assay relates to S. aureus 1814 (MRSA). Description: MIC/MBC by broth microdilution reference method. The format is cell-based, Staphylococcus aureus. Particulars: Staphylococcus aureus, MRSA.
The test system of the next assay is S. aureus 1815 (MRSA). Description: MIC/MBC by broth microdilution reference method. The format is cell-based, Staphylococcus aureus. Particulars: Staphylococcus aureus, MRSA.
In the next assay the test system is S. aureus 1816 (MSSA). In words: MIC/MBC by broth microdilution reference method. Particulars: Staphylococcus aureus, MSSA. Format: cell-based, Staphylococcus aureus.
The test system of another assay is S. aureus 1817 (MSSA). In words: MIC/MBC by broth microdilution reference method. The format is cell-based, Staphylococcus aureus. Particulars: Staphylococcus aureus, MSSA.
In the next assay the test system is S. aureus 1818 (MSSA). In words: MIC/MBC by broth microdilution reference method. Particulars: Staphylococcus aureus, MSSA. Format: cell-based, Staphylococcus aureus.
The test system of assay [1] is S. aureus ATCC 29213 (MSSA reference strain). In words: MIC/MBC by broth microdilution reference method. Particulars: Staphylococcus aureus. The format is cell-based, Staphylococcus aureus.
The next assay concerns all S. aureus isolates. Description: MIC/MBC by broth microdilution, summary over all isolates. Format: cell-based, Staphylococcus aureus. Particulars: Staphylococcus aureus, read-out: MICs for all S. aureus isolates.
For a further assay, the system named is MSSA 1334. Description: Mouse model of septic arthritis. The format is in vivo. Particulars: MSSA 1334-infected mice, Pep16 10 mg/kg or vancomycin 100 mg/kg subcutaneous daily. On the procedure: Female Swiss mice, obtained from Janvier Labs and aged between 11 and 13 weeks with an approximate weight of 34 g, were used. The experiments were conducted in the ARCHE animal facility (Biosit) in Rennes. Mice were inoculated IV with 200 μL of a 0.9% NaCl solution containing approximately 10^8 cfu of the 1334 strain (MSSA). […] These treatments were administered daily for a duration of 7 days. […] The mice were monitored on a daily basis, and on the seventh day, they were humanely euthanized using CO2. Subsequently, knee joints, spleen and kidneys were excised, weighed and homogenized in 0.9% NaCl using a Polytron PT 3100D homogenizer (Kinematica, Switzerland). Bacterial loads were determined by plating serial dilutions onto BHI agar and expressed as log10 cfu/g.
Figure 3. Bacterial loads (in log cfu/g) at Day 7 in knee joints, kidneys and spleen from mice infected by MSSA 1334. Mice were initially inoculated with approximately 1 × 10^8 cfu of MSSA 1334. […] Treatments were administered via subcutaneous injection and continued daily until the conclusion of the experiment. Individual dots on the graph represent cfu counts for single animals (enumerated at Day 7), with black horizontal lines indicating median values. The experiments were performed with five mice per condition, in triplicate for Pep16 and saline solution, and in duplicate for vancomycin. […]

The subject of a further assay is S. aureus in osteoblasts. Further details: method as in PMID 34423360. Particulars: at 100x its MIC; cited from earlier work.
Another assay concerns S. aureus. Further details: method as in ref 11 (Chauvelot et al.). Particulars: ref 11 (Chauvelot et al.); cited from earlier work.

For `CN[C@H](CC(C)C)C(=O)N[C@H]1C(=O)N[C@@H](CC(N)=O)C(=O)N[C@H]2C(=O)N[C@H]3C(=O)N[C@H](C(=O)N[C@H](C(=O)O)c4cc(O)cc(O)c4-c4cc3ccc4O)[C@H](O)c3ccc(c(Cl)c3)Oc3cc2cc(c3O[C@@H]2O[C@H](CO)[C@@H](O)[C@H](O)[C@H]2O[C@H]2C[C@](C)(N)[C@H](O)[C@H](C)O2)Oc2ccc(cc2Cl)[C@H]1O` [VAN, vancomycin], the MBC against S. aureus 1333 (MSSA), against S. aureus 1334 (MSSA), in the assay on S. aureus 1814 (MRSA), against S. aureus 1815 (MRSA), against S. aureus 1816 (MSSA) and against S. aureus 1817 (MSSA) was 0.5 µg/mL (≈ 0.345 µM) throughout. Also, the MBC (with S. aureus 1818 (MSSA); in [1]) was 0.5 µg/mL (≈ 0.345 µM) each time. Further, the MIC in the assay with S. aureus 1333 (MSSA), in the assay with S. aureus 1334 (MSSA), with S. aureus 1814 (MRSA), in the assay with S. aureus 1815 (MRSA), in the assay on S. aureus 1816 (MSSA) and against S. aureus 1817 (MSSA) was 0.5 µg/mL (≈ 0.345 µM) throughout. The MIC (with S. aureus 1818 (MSSA); in assay [1]; in the assay with all S. aureus isolates) was 0.5 µg/mL (≈ 0.345 µM) in each case. Besides, in the assay with MSSA 1334, the “survival of infected mice at Day 7” value was “had survived at Day 7”.

Consider `CN[C@H]1C(=O)N[C@@H]2Cc3ccc(cc3)Oc3cc4cc(c3O[C@@H]3O[C@H](C(=O)O)[C@@H](O)[C@H](O)[C@H]3NC(=O)CCCCCCCCC(C)C)Oc3ccc(cc3Cl)[C@@H](O)[C@@H]3NC(=O)[C@H](NC(=O)[C@@H]4NC(=O)[C@@H](NC2=O)c2cc(cc(O)c2Cl)Oc2cc1ccc2O)c1ccc(O)c(c1)-c1c(O[C@H]2O[C@H](CO)[C@@H](O)[C@H](O)[C@@H]2O)cc(O)cc1[C@@H](C(=O)NCCCN(C)C)NC3=O` [dalbavancin], for which the “peak of reduction of S. aureus in osteoblasts” value in the assay on S. aureus in osteoblasts is recorded as 51.6%. For the same molecule, the MIC in the assay with S. aureus was 0.125 µg/mL (≈ 0.0688 µM).
